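96-well plates; 48 h exposure; 5 concentrations. Endpoints by linear interpolation between flanking doses. Not reached: highest tested concentration assigned. GI50 marks 50% less growth.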 Active and inactive are the calls of the source. Cut-off read from the data, not from the text of the source: active = GI50 up to about 1.1 µM and inactive = higher. A value given as a limit tells only on which side of the number the result lay.

Some test systems named below: SK-OV-3; NCI-H226; EKVX; SR; SF-539; HOP-92; SN12C; RXF 393; 786-0; UACC-257; A549; DLD-1; NCI-H460; TK-10; NCI-H522; A498; CAKI-1; OVCAR-4; SK-MEL-5; MDA-MB-231.
Holding throughout (assay): growth of human tumour cells (NCI), 48 h

As to `N#Cc1c(-c2ccccc2)c(-c2ccccc2)cc2c(=O)c3ccc(Cl)cc3[nH]c12`, the GI50 with SK-OV-3, in the experiment on NCI-H226, in the experiment on EKVX, in the experiment with SR, in the experiment with SF-539 and in the experiment with HOP-92 was > 100 µM (inactive) each time. For the same compound, the GI50 with SN12C, in the experiment with RXF 393, in the experiment on 786-0, with UACC-257, with A549 and in the experiment with DLD-1 was > 100 µM (inactive) in each case. Moreover, the GI50 in the experiment on NCI-H460 and in the experiment on TK-10 was > 100 µM (inactive) throughout.
As to `CCOC(=O)C12CCCC1(O)N(NC(N)=O)C(C)=C2C(=O)OC` (centres undefined), the GI50 with NCI-H522, with SK-OV-3, in the experiment with NCI-H226, with EKVX, in the experiment with A498 and with SF-539 was > 100 µM (inactive) each time. For the same compound, the GI50 with HOP-92, in the experiment on CAKI-1, with SN12C, with OVCAR-4, with 786-0 and in the experiment with UACC-257 was > 100 µM (inactive) throughout. In addition, the GI50 in the experiment on A549, with DLD-1, with NCI-H460 and with TK-10 was > 100 µM (inactive) each time.
As for `O=C(N/C(=C\c1ccc(Cl)cc1)c1nc2ccccc2[nH]1)c1ccccc1`, the GI50 in the experiment on SK-MEL-5 is 20.1 µM (inactive); in the experiment with NCI-H522, 12.7 µM (inactive); in the experiment with SK-OV-3, 37.1 µM (inactive); in the experiment on NCI-H226, 22.2 µM (inactive); in the experiment with EKVX it was 26.9 µM (inactive); in the experiment on A498, 21.8 µM (inactive). Moreover, the GI50 is 16.7 µM (inactive) with SF-539; 14.9 µM (inactive) with HOP-92; 20.6 µM (inactive) with CAKI-1; 21.9 µM (inactive) in the experiment on SN12C; 18.4 µM (inactive) in the experiment on RXF 393; 14.7 µM (inactive) in the experiment on OVCAR-4. Further, the GI50 was 18.9 µM (inactive) in the experiment with 786-0; 19.2 µM (inactive) with UACC-257; 25.4 µM (inactive) in the experiment with A549; 15.8 µM (inactive) in the experiment with DLD-1; 22.1 µM (inactive) with NCI-H460; 30.3 µM (inactive) with TK-10.
For `CC1=CCC23C(C1)OC(Br)(C=CC2(C)O)C3(C)C` (centres undefined), the GI50 in the experiment on SK-MEL-5, with NCI-H226, with EKVX, in the experiment with A498, in the experiment on SF-539 and in the experiment with HOP-92 was > 100 µM (inactive) in each case. Also, the GI50 with CAKI-1, in the experiment on SN12C, in the experiment on OVCAR-4, with 786-0, in the experiment on UACC-257 and with A549 was > 100 µM (inactive) throughout. Also, the GI50 in the experiment with DLD-1, in the experiment on NCI-H460 and in the experiment with TK-10 was > 100 µM (inactive) throughout.
As for `CC(=O)OC1CC2CCN3C(=O)c4cc5c(cc4[C@H](C1OC(C)=O)C23)OCO5` (some centres undefined), the GI50 in the experiment with NCI-H522, in the experiment on SK-OV-3, in the experiment on NCI-H226, in the experiment with EKVX, with SR and with SF-539 was > 100 µM (inactive) in each case. Further, the GI50 with SN12C, in the experiment on RXF 393, with 786-0, with UACC-257, with A549 and in the experiment with DLD-1 was > 100 µM (inactive) in each case. The GI50 with NCI-H460 and in the experiment with TK-10 was > 100 µM (inactive) throughout.
In the case of `O=C1CC[C@H](NC(=O)Cc2ccccc2)C(=O)N1` [ANTINEOPLASTON A10], the GI50 in the experiment with NCI-H522, with SK-OV-3, in the experiment with NCI-H226, in the experiment with EKVX, in the experiment with SR and in the experiment with SF-539 was > 1250 µM (inactive) throughout. In addition, the GI50 in the experiment on CAKI-1, with SN12C, in the experiment on RXF 393, in the experiment on OVCAR-4, in the experiment on 786-0 and with UACC-257 was > 1250 µM (inactive) each time. Also, the GI50 with A549, in the experiment with DLD-1, in the experiment with NCI-H460 and in the experiment on TK-10 was > 1250 µM (inactive) in each case.
Take `Nc1ccc2nc(Nc3ccc(F)cc3)cnc2c1`: the GI50 in the experiment with SK-MEL-5 is > 100 µM (inactive); in the experiment with NCI-H522 it was 44.4 µM (inactive); in the experiment on NCI-H226, > 100 µM (inactive); in the experiment on EKVX, > 100 µM (inactive); with SR, 36.1 µM (inactive); in the experiment on SF-539, > 100 µM (inactive). Also, the GI50 in the experiment on CAKI-1, in the experiment with SN12C, with OVCAR-4, with 786-0, in the experiment with UACC-257 and with A549 was > 100 µM (inactive) throughout. For the same compound, the GI50 with DLD-1 is > 100 µM (inactive); with NCI-H460, > 100 µM (inactive); in the experiment with TK-10 it was 87.3 µM (inactive).
As for `CCN1C2=NC(=O)N(C)C(=O)C2(Cl)C(C(SC)S(=O)(=O)c2ccc(C)cc2)c2ccccc21` (centres undefined), the GI50 is 35.6 µM (inactive) in the experiment on SK-MEL-5; 11.8 µM (inactive) with NCI-H522; > 100 µM (inactive) in the experiment on SK-OV-3; 32.4 µM (inactive) in the experiment on NCI-H226; > 100 µM (inactive) with EKVX; > 100 µM (inactive) in the experiment on A498. Besides, the GI50 was 37.5 µM (inactive) with SF-539; 30.6 µM (inactive) with HOP-92; 34 µM (inactive) in the experiment on CAKI-1; 61 µM (inactive) with SN12C; 22.9 µM (inactive) in the experiment on OVCAR-4; 25.1 µM (inactive) in the experiment with 786-0. Further, the GI50 in the experiment with UACC-257 was 23.6 µM (inactive); with A549, 85.1 µM (inactive); in the experiment with DLD-1 it was 33.4 µM (inactive); in the experiment with NCI-H460, 83.4 µM (inactive); in the experiment with TK-10 it was > 100 µM (inactive).
As for `COC(=O)c1cc2c(=O)n(C)c3ccccc3n2c1C(=O)OC`, the GI50 with SK-MEL-5 is > 100 µM (inactive); in the experiment with NCI-H522, 20 µM (inactive); with SK-OV-3, 28.1 µM (inactive); with NCI-H226 it was 30.3 µM (inactive); with EKVX, 26.9 µM (inactive); in the experiment on A498 it was 27.2 µM (inactive). For the same compound, the GI50 in the experiment on SF-539 is 26.1 µM (inactive); in the experiment with HOP-92 it was 33 µM (inactive); in the experiment with CAKI-1 it was 73.5 µM (inactive); in the experiment with SN12C, 42.5 µM (inactive); with RXF 393 it was 36.2 µM (inactive); in the experiment with OVCAR-4, > 100 µM (inactive). In addition, the GI50 in the experiment with 786-0 was 22.8 µM (inactive); in the experiment on UACC-257, > 100 µM (inactive); in the experiment on A549, 66.4 µM (inactive); with DLD-1, 30.1 µM (inactive); with NCI-H460, > 100 µM (inactive); in the experiment on TK-10, 25.6 µM (inactive).
With `Cc1cc([N+](=O)[O-])c(C)c2c1[nH]c1ccc(O)cc12`, the GI50 in the experiment on SK-MEL-5 is > 100 µM (inactive); with NCI-H522, > 10 µM (inactive); in the experiment with NCI-H226, > 100 µM (inactive); in the experiment on EKVX, > 100 µM (inactive); in the experiment on SR, 28.8 µM (inactive); in the experiment with SF-539, > 100 µM (inactive). Further, the GI50 is > 100 µM (inactive) with CAKI-1; > 100 µM (inactive) in the experiment on SN12C; > 100 µM (inactive) in the experiment with OVCAR-4; 39.4 µM (inactive) in the experiment on 786-0; > 100 µM (inactive) in the experiment with UACC-257; > 100 µM (inactive) with A549. Besides, the GI50 in the experiment on DLD-1 is 16.8 µM (inactive); in the experiment with NCI-H460 it was > 100 µM (inactive); with TK-10, > 100 µM (inactive).
As for `O=C1[C@@H]2C(c3ccccc3Br)=NO[C@@H]2C(=O)N1c1ccc(Cc2ccc(N3C(=O)[C@H]4C(c5ccccc5Br)=NO[C@H]4C3=O)cc2)cc1`, the GI50 in the experiment with SK-MEL-5 was > 100 µM (inactive); in the experiment with SK-OV-3, > 100 µM (inactive); in the experiment on NCI-H226 it was 96.4 µM (inactive); in the experiment with EKVX, > 100 µM (inactive); in the experiment on A498, > 100 µM (inactive); in the experiment on SF-539, > 100 µM (inactive). The GI50 in the experiment on HOP-92 is > 100 µM (inactive); in the experiment with CAKI-1, > 100 µM (inactive); in the experiment with SN12C, > 100 µM (inactive); in the experiment on RXF 393 it was 50.2 µM (inactive); in the experiment with OVCAR-4 it was > 100 µM (inactive); with 786-0, > 100 µM (inactive). The GI50 in the experiment with UACC-257, in the experiment on A549, in the experiment with DLD-1, with NCI-H460 and with TK-10 was > 100 µM (inactive) throughout.
For `COC1=C(C)C(=O)c2c(c(COC(N)=O)c3n2CC(OC(C)=O)C3OC(C)=O)C1=O` (centres undefined), the GI50 with SK-MEL-5 was 0.133 µM (active); with NCI-H522, 0.0137 µM (active); in the experiment on SK-OV-3 it was 0.41 µM (active); in the experiment on NCI-H226 it was 0.297 µM (active); with EKVX, 0.202 µM (active); with SR, < 0.01 µM (active). Moreover, the GI50 in the experiment on A498 was 0.593 µM (active); in the experiment on SF-539, 0.0239 µM (active); in the experiment on HOP-92, 0.186 µM (active); with CAKI-1 it was < 0.01 µM (active); with SN12C, 0.0944 µM (active); in the experiment with RXF 393, 0.152 µM (active). Further, the GI50 in the experiment on OVCAR-4 was 0.279 µM (active); in the experiment on 786-0, < 0.0116 µM (active); with UACC-257, 0.115 µM (active); with A549, 0.136 µM (active); in the experiment with NCI-H460, < 0.01 µM (active); in the experiment with MDA-MB-231, 0.2 µM (active). Further, the GI50 in the experiment with TK-10 is 0.388 µM (active).

Source of the values: ChEMBL document CHEMBL1201862, “PubChem BioAssay data set” (2004).
